Among the data in the OligoGym collection are 3 h FOB score values, retold here.

HELM strings list units from the 5' end as sugar, base in round brackets, then linkage (d deoxyribose, r ribose, m 2'-O-methyl, p phosphodiester). Strings are as the collection lists them; they lack the last nucleoside at the 3' end of the tested compound. [moe] = 2'-O-(2-methoxyethyl) (MOE); [sp] = phosphorothioate linkage; [m5C] = 5-methylcytosine

The target of this series is GFAP. As to the kind of experiment: mouse, dose not given. Conditions: ASO.
Regarding “RNA1{[moe](G)[sp].[moe](G)p.[moe]([m5C])p.[moe](A)p.[moe](G)p.d(T)[sp].d(A)[sp].d(T)[sp].d(T)[sp].d(A)[sp].d([m5C])[sp].d([m5C])[sp].d(T)[sp].d([m5C])[sp].d(T)[sp].[moe](A)p.[moe]([m5C])p.[moe](T)[sp].[moe](A)}$$$$ (last 3' nucleoside missing)”, the 3 h FOB score was 3 score 0-7.
In the case of “RNA1{[moe](T)[sp].[moe]([m5C])p.[moe](A)p.[moe](G)p.[moe]([m5C])[sp].d([m5C])[sp].d(T)[sp].d(G)[sp].d(G)[sp].d(T)[sp].d(T)[sp].d(A)[sp].d(G)[sp].[moe]([m5C])p.[moe]([m5C])p.[moe](T)[sp].[moe](T)}$$$$ (last 3' nucleoside missing)” it was 3 score 0-7.
“RNA1{[moe](G)[sp].[moe](T)p.[moe](G)p.[moe](A)p.[moe](T)[sp].d(T)[sp].d(T)[sp].d(T)[sp].d([m5C])[sp].d([m5C])[sp].d([m5C])[sp].d([m5C])[sp].d(G)[sp].d(T)[sp].d([m5C])[sp].[moe](T)p.[moe](T)p.[moe](T)[sp].[moe](G)}$$$$ (last 3' nucleoside missing)” yielded a 3 h FOB score of 6 score 0-7.
“RNA1{[moe](A)[sp].[moe](A)p.[moe](G)p.[moe](G)p.[moe]([m5C])p.[moe](A)p.d([m5C])[sp].d(A)[sp].d(G)[sp].d(T)[sp].d(T)[sp].d([m5C])[sp].d([m5C])[sp].d([m5C])[sp].d(A)[sp].d(G)[sp].[moe](A)p.[moe](T)[sp].[moe](A)}$$$$ (last 3' nucleoside missing)”: the 3 h FOB score stood at 2 score 0-7.
Substance “RNA1{[moe]([m5C])[sp].[moe](G)p.[moe](T)p.[moe]([m5C])p.[moe](A)p.d([m5C])[sp].d(A)[sp].d(T)[sp].d(T)[sp].d([m5C])[sp].d(A)[sp].d([m5C])[sp].d(T)[sp].d(A)[sp].d(A)[sp].[moe](T)p.[moe](A)p.[moe](T)[sp].[moe](T)}$$$$ (last 3' nucleoside missing)” gave a 3 h FOB score of 0 score 0-7.
Turning to “RNA1{[moe](A)[sp].[moe](G)p.[moe](T)p.[moe](G)p.[moe](T)[sp].d(G)[sp].d(T)[sp].d(A)[sp].d(T)[sp].d(T)[sp].d(A)[sp].d(G)[sp].d(G)[sp].d(A)[sp].d(T)[sp].[moe]([m5C])p.[moe]([m5C])p.[moe]([m5C])[sp].[moe](A)}$$$$ (last 3' nucleoside missing)”, the 3 h FOB score was found to be 5 score 0-7.
The value for “RNA1{[moe](G)[sp].[moe](T)p.[moe](G)p.[moe](T)p.[moe](G)[sp].d(T)[sp].d(A)[sp].d(T)[sp].d(T)[sp].d(A)[sp].d(G)[sp].d(G)[sp].d(A)[sp].[moe](T)p.[moe]([m5C])p.[moe]([m5C])[sp].[moe]([m5C])}$$$$ (last 3' nucleoside missing)” was 3 score 0-7; that for “RNA1{[moe](A)[sp].[moe](G)p.[moe]([m5C])p.[moe](A)p.d(T)[sp].d(T)[sp].d(T)[sp].d(G)[sp].d(T)[sp].d([m5C])[sp].d(T)[sp].d(T)[sp].d(T)[sp].d(A)[sp].[moe](T)p.[moe](T)p.[moe](T)p.[moe](T)[sp].[moe](T)}$$$$ (last 3' nucleoside missing)” was 1 score 0-7; that for “RNA1{[moe](T)[sp].[moe](G)p.[moe](A)p.[moe]([m5C])p.[moe](T)p.[moe](A)p.d(T)[sp].d([m5C])[sp].d(T)[sp].d(A)[sp].d(G)[sp].d(G)[sp].d(A)[sp].d(T)[sp].d(T)[sp].d(T)[sp].[moe](G)p.[moe](G)[sp].[moe]([m5C])}$$$$ (last 3' nucleoside missing)” was 2 score 0-7.
For the substance “RNA1{[moe]([m5C])[sp].[moe](T)p.[moe](T)p.[moe](T)p.[moe](A)[sp].d(T)[sp].d(T)[sp].d(T)[sp].d(T)[sp].d(T)[sp].d([m5C])[sp].d([m5C])[sp].d(T)[sp].[moe]([m5C])p.[moe](A)p.[moe](G)[sp].[moe]([m5C])}$$$$ (last 3' nucleoside missing)”, the 3 h FOB score worked out at 4 score 0-7.
“RNA1{[moe](T)[sp].[moe](G)p.[moe](G)p.[moe]([m5C])p.[moe](A)[sp].d(A)[sp].d([m5C])[sp].d(A)[sp].d(G)[sp].d(T)[sp].d(T)[sp].d(T)[sp].d([m5C])[sp].d([m5C])[sp].d(A)[sp].[moe](T)p.[moe](A)p.[moe](A)[sp].[moe]([m5C])}$$$$ (last 3' nucleoside missing)” had a 3 h FOB score of 1 score 0-7.
“RNA1{[moe](T)[sp].[moe](G)p.[moe](G)p.[moe]([m5C])p.[moe](A)[sp].d(G)[sp].d(T)[sp].d(A)[sp].d(T)[sp].d(T)[sp].d(A)[sp].d([m5C])[sp].d([m5C])[sp].[moe](T)p.[moe]([m5C])p.[moe](T)[sp].[moe](A)}$$$$ (last 3' nucleoside missing)” returned a 3 h FOB score of 0 score 0-7.
“RNA1{[moe](A)[sp].[moe](T)p.[moe](T)p.[moe](T)p.[moe](A)[sp].d(A)[sp].d([m5C])[sp].d(A)[sp].d(T)[sp].d(T)[sp].d(A)[sp].d(A)[sp].d(G)[sp].d(A)[sp].d(G)[sp].[moe]([m5C])p.[moe](A)p.[moe](G)[sp].[moe](G)}$$$$ (last 3' nucleoside missing)” came in with a 3 h FOB score of 4 score 0-7.
As to “RNA1{[moe](G)[sp].[moe]([m5C])p.[moe](A)p.[moe](T)p.[moe](T)p.[moe](T)p.d(G)[sp].d(T)[sp].d([m5C])[sp].d(T)[sp].d(T)[sp].d(T)[sp].d(A)[sp].d(T)[sp].d(T)[sp].d(T)[sp].[moe](T)p.[moe](T)[sp].[moe]([m5C])}$$$$ (last 3' nucleoside missing)”, the 3 h FOB score is 1 score 0-7.
Substance “RNA1{[moe](G)[sp].[moe]([m5C])p.[moe]([m5C])p.[moe](A)p.[moe](T)[sp].d(T)[sp].d(T)[sp].d(A)[sp].d(T)[sp].d([m5C])[sp].d(T)[sp].d(G)[sp].d(T)[sp].d(G)[sp].d([m5C])[sp].[moe](T)p.[moe](T)p.[moe](T)[sp].[moe](A)}$$$$ (last 3' nucleoside missing)” had a 3 h FOB score of 6 score 0-7.
The substance “RNA1{[moe](A)[sp].[moe]([m5C])p.[moe](T)p.[moe](A)p.d(G)[sp].d(T)[sp].d([m5C])[sp].d(A)[sp].d(G)[sp].d([m5C])[sp].d([m5C])[sp].d(T)[sp].d(G)[sp].d(G)[sp].[moe](T)p.[moe](T)p.[moe](A)p.[moe](G)[sp].[moe]([m5C])}$$$$ (last 3' nucleoside missing)” gave a 3 h FOB score of 2 score 0-7.
“RNA1{[moe]([m5C])[sp].[moe](G)p.[moe](T)p.[moe](A)p.[moe](T)[sp].d(T)[sp].d(G)[sp].d(T)[sp].d(G)[sp].d(A)[sp].d(G)[sp].d(G)[sp].d([m5C])[sp].d(T)[sp].d(T)[sp].[moe](T)p.[moe](T)p.[moe](G)[sp].[moe](A)}$$$$ (last 3' nucleoside missing)” had a 3 h FOB score of 7 score 0-7.
“RNA1{[moe](G)[sp].[moe](T)p.[moe]([m5C])p.[moe](T)p.d(T)[sp].d(T)[sp].d(A)[sp].d(T)[sp].d(T)[sp].d(T)[sp].d(T)[sp].d(T)[sp].d([m5C])[sp].d([m5C])[sp].[moe](T)p.[moe]([m5C])p.[moe](A)p.[moe](G)[sp].[moe]([m5C])}$$$$ (last 3' nucleoside missing)”: the 3 h FOB score came to 3 score 0-7.
